Where no end group is shown, it is not given here.
Assays:
[1] = system: CD86 expression in THP-1; experiment: h-CLAT assay, CD86 expression; format: cell-based, human; settings: positive if RFI of CD86>150, FIG. 2
Experimental: Into a 75-cm^2 flask was placed 50 mL of a suspension of the human monocytic cell line THP-1 (JCRB accession number: JCRB0112) at a density of 2.0×10^5 cells/mL in RPMI 1640 culture medium containing 10% FBS and 0.05 mM mercaptoethanol. The cells were precultured for 48 hours. The precultured THP-1 cells were harvested by centrifugation and suspended at 2.0×10^6 cells/mL in RPMI 1640 culture medium containing 10% FBS and 0.05 mM mercaptoethanol. To each well of 24-well plates, 500 μL of the cell suspension was seeded. To each well containing the seeded cell suspension, 500 μL of each peptide in the same culture medium was added. After 24 hours of incubation, the cells were harvested by centrifugation and were washed twice with PBS containing 0.1% BSA (FACS buffer). The cells were then suspended in 600 μL of FACS buffer containing a 0.01% human γ-globulin solution (Sigma, G2388) and incubated at 4° C. for 10 minutes to block the Fc receptor. The cell suspension was then split into three 180-μL aliquots for conducting an antibody reaction. The aliquots were each transferred to a 1.5-mL tube and centrifuged to give a pellet. To each pellet was added 50 μL of each of solutions of three different FITC-conjugated antibodies, i.e., FITC-conjugated CD86 antibody (Pharmingen; Cat #555657), FITC-conjugated CD54 antibody (Dako; Cat #F7143) and FITC-conjugated isotype control (Mouse IgG) antibody (Dako; Cat #X0927), that were adjusted to an appropriate concentration with FACS buffer. The mixture was incubated at 4° C. for 30 minutes. After the incubation, the cells were harvested by centrifugation and washed twice with FACS buffer. The cells were harvested by centrifugation and suspended in 200 μL of FACS buffer containing 0.625 μg/mL propidium iodide. Then, 1×10^4 living cells were analyzed by flow cytometry to determine the expression levels of the cell surface antigens. No gating on forward or side scatter was used. The relative fluorescence intensities (RFIs) were calculated from the mean of the measured fluorescence intensities (MFIs) in accordance with the following equation.
(§1) From the survival rates and the RFI values of CD86 and CD54 expressions, the sensitization potentials were evaluated. The sensitization potentials of the test samples were determined to be positive when the RFIs of the antigen expressions in the sample treatment groups satisfy the following equations: the RFI of CD86>150, and the RFI of CD54>200. (2) Results

[2] = system: CD54 expression in THP-1; experiment: h-CLAT assay, CD54 expression; format: cell-based, human; settings: positive if RFI of CD54>200; FIG. 3
Experimental: (§2) Into a 75-cm^2 flask was placed 50 mL of a suspension of the human monocytic cell line THP-1 (JCRB accession number: JCRB0112) at a density of 2.0×10^5 cells/mL in RPMI 1640 culture medium containing 10% FBS and 0.05 mM mercaptoethanol. The cells were precultured for 48 hours. The precultured THP-1 cells were harvested by centrifugation and suspended at 2.0×10^6 cells/mL in RPMI 1640 culture medium containing 10% FBS and 0.05 mM mercaptoethanol. To each well of 24-well plates, 500 μL of the cell suspension was seeded. To each well containing the seeded cell suspension, 500 μL of each peptide in the same culture medium was added. […] Then, 1×10^4 living cells were analyzed by flow cytometry to determine the expression levels of the cell surface antigens. […] The relative fluorescence intensities (RFIs) were calculated from the mean of the measured fluorescence intensities (MFIs) in accordance with the following equation.
as §1, with “(2) Results” left out

[3] = system: human monocytic cell line THP-1; experiment: Sensitization test by the h-CLAT assay (overall evaluation); format: cell-based; settings: even at high concentrations; positive if RFI of CD86>150 and RFI of CD54>200; 24 hours
Experimental: as §2
as §1, with “(2) Results” left out

Molecule | sensitization potential for CD86 expression ([1]; at high concentrations) | sensitization potential for CD86 expression ([1]; at low concentrations) | sensitization potential for CD54 expression [2] | sensitization potential [3]
CC[C@H](C)[C@H](NC(=O)[C@H](CCCCN)NC(=O)[C@H](CCC(=O)O)NC(=O)[C@H](CCCCN)NC(=O)[C@H](CO)NC(=O)[C@H](CCCCN)NC(=O)[C@H](CCCNC(=N)N)NC(=O)[C@H](Cc1ccccc1)NC(=O)[C@H](Cc1ccccc1)NC(=O)[C@H](CC(=O)O)NC(=O)CNC(=O)[C@H](CC(C)C)NC(=O)[C@@H](N)CC(C)C)C(=O)NCC(=O)N[C@@H](CCCCN)C(=O)N[C@@H](CCC(=O)O)C(=O)N[C@@H](Cc1ccccc1)C(=O)N[C@@H](CCCCN)C(=O)N[C@@H](CCCNC(=N)N)C(=O)N[C@H](C(=O)N[C@H](C(=O)N[C@@H](CCC(N)=O)C(=O)N[C@@H](CCCNC(=N)N)C(=O)N[C@H](C(=O)N[C@@H](CCCCN)C(=O)N[C@@H](CC(=O)O)C(=O)N[C@@H](Cc1ccccc1)C(=O)N[C@@H](CC(C)C)C(=O)N[C@@H](CCCNC(=N)N)C(=O)N[C@@H](CC(N)=O)C(=O)N[C@@H](CC(C)C)C(=O)N[C@H](C(=O)N1CCC[C@H]1C(=O)N[C@@H](CCCNC(=N)N)C(=O)N[C@H](C(=O)N[C@@H](CCC(=O)O)C(=O)N[C@@H](CO)C(=O)O)[C@@H](C)O)C(C)C)[C@@H](C)CC)C(C)C)[C@@H](C)CC [LL-37] | positive | negative | negative | –
Ac-IFLHR-NH2 [OSK-6, IFLHR] | – | – | – | negative
GIGKFLHSAKKFGKAFVGEIMNS [magainin] | positive | negative | negative | –

From patent US10463592B2, “Peptide with anti-aging effect and use thereof” (Osaka University, priority 2013, dated 2019)
